Molecules are shown by their SMILES.

One test concerns the target T1, HCV-NS5b (Hepatitis C virus genotype 1b, UniProt Q9WMX2).
T1 construct: The cloned fragment was missing the C terminus 21 amino acid residues; (His)6 (C); made in house; host or cells: XL-1 cells (E. coli)
As to the kind of experiment: HCV-NS5b enzyme assay. Format: biochemical. Particulars: recombinant NS5b, 37° C., 2 hours, read-out: % inhibition of polymerase activity ([3H]-UTP incorporation). The source says:
The coding sequence of NS5b protein was cloned by PCR from pFKI389luc/NS3-3′/ET as described by Lohmann, V., et al. (1999) Science 285, 110-113 using the primers shown on page 266 of WO 2005/012288.
The cloned fragment was missing the C terminus 21 amino acid residues. The cloned fragment was inserted into an IPTG-inducible expression plasmid that provides an epitope tag (His)6 at the carboxy terminus of the protein.
The recombinant enzyme was expressed in XL-1 cells and after induction of expression, the protein was purified using affinity chromatography on a nickel-NTA column. Storage condition was 10 mM Tris-HCl pH 7.5, 50 mM NaCl, 0.1 mM EDTA, 1 mM DTT, 20% glycerol at −20° C.
The polymerase activity was assayed by measuring incorporation of radiolabeled UTP into a RNA product using a biotinylated, heteropolymeric template, which includes a portion of the HCV genome. Typically, the assay mixture (34 μL) contains 10 mM Tris-HCl (pH 7.5), 5 mM MgCl2, 0.2 mM EDTA, 10 mM KCl, 1 unit/μL RNAsin, 1 mM DTT, 10 μM each of NTP, including [^3H]-UTP, and 10 ng/μL biotinylated heteropolymeric template. […] Incorporation of radioactivity was determined by scintillation counting (cpm). The % Inhibition at a particular concentration was determined using the following equation, % Inhibition=100−[100*(cpm with inhibitor−bg)/(cpm with no inhibitor−bg)] where bg was the background with no enzyme.

Test [1] relates to HCV replicon I389luc-ubi-neo/NS3-3′/ET in ET (Huh-lucubineo-ET) cell line. As to the kind of experiment: Replicon assay (luciferase reporter). Particulars: Hepatitis C virus, read-out: % inhibition of replication (luciferase). The test is classed as cell-based. As to the method:
A cell line, ET (Huh-lucubineo-ET) was used for screening of compounds for inhibiting HCV RNA dependent RNA polymerase. The ET cell line was stably transfected with RNA transcripts harboring a I389luc-ubi-neo/NS3-3′/ET; replicon with firefly luciferase-ubiquitin-neomycin phosphotransferase fusion protein and EMCV-IRES driven NS3-5B polyprotein containing the cell culture adaptive mutations (E1202G; T1280I; K1846T) (Krieger at al, 2001 and unpublished). The ET cells were grown in DMEM, supplemented with 10% fetal calf serum, 2 mM Glutamine, Penicillin (100 IU/mL)/Streptomycin (100 μg/mL), 1× nonessential amino acids, and 250 μg/mL G418 (“Geneticin”). They were all available through Life Technologies (Bethesda, Md.). The cells were plated at 0.5-1.0×10^4 cells/well in the 96 well plates and incubated for 24 hrs before adding test compound. […] Luciferase activity was measured 48-72 hours later by adding a lysis buffer and the substrate (Catalog number Glo-lysis buffer E2661 and Bright-Glo luciferase system E2620 Promega, Madison, Wis.). […] Under the same condition, cytotoxicity of the compounds was determined using cell proliferation reagent, WST-1 (Roche, Germany). […] IC50 and TC50 values were calculated by fitting % inhibition at each concentration to the following equation: % inhibition=100%/[(IC50/[I])^b+1] where b is Hill's coefficient. […]
In general terms: In antiviral work, replicon cells carry a viral genome segment that copies itself.

`C#Cc1cn(C2OC(COP(=O)(O)OP(=O)(O)OP(=O)(O)O)[C@@H](O)[C@@]2(C)F)c2ncnc(N)c12` (stereo partly drawn) [[4-Amino-5-ethynyl-7-(2-deoxy-2-fluoro-2-C-methyl-β-D-ribofuanosyl)-7H-pyrrolo[2,3-d]pyrimidine]5′-triphosphate]: the inhibition at 6 µM at HCV-NS5b was determined as 95%.
For the compound `C#Cc1cn(C2OC(CO)[C@@H](O)[C@@]2(C)F)c2ncnc(N)c12` (stereo in doubt) [4-Amino-5-ethynyl-7-(2-deoxy-2-fluoro-2-C-methyl-β-D-ribofuanosyl)-7H-pyrrolo[2,3-d]pyrimidine], the inhibition at 50 µM in test [1] was determined as 60%.
`C#Cc1cn(C2OC(COP(=O)(NC(C)C(=O)OC)Oc3ccccc3)[C@@H](O)[C@@]2(C)F)c2ncnc(N)c12` (stereo partly drawn) [[4-Amino-5-ethynyl-7-(2-deoxy-2-fluoro-2-C-methyl-β-D-ribofuanosyl)-7H-pyrrolo[2,3-d]pyrimidine]5′-[Rp/Sp-Methoxyalaninylphenylphosphate]]: the inhibition at 12.5 µM in test [1] came out at 11%.

For the origin of these results see patent US7405204B2, “Nucleoside compounds for treating viral infections” (Genelabs Technologies, Inc., priority 2005, dated 2008).
